In patent publication US20080039434A1, “Treatment of Interstitial Cystitis with Vitamin D Compounds” (BioXell S. p.A., priority 2004, published 2008):
Where “and” joins values, the source holds several entries; their conditions need not be identical. Identical values can stand only once.

Assays:
[1] = Calcemia assessment in allergic IC mice (colorimetric serum calcium assay); format: in vivo, mouse; design: serum calcium levels: dose or concentration left out as unconfirmed
Experimental: Serum calcemia was evaluated by a commercially available colorimetric assay (Calcium Dry-Fast, Sentinel CH. Italy). Briefly, 10 ul serum were added to 100 ul reaction solution prepared according to the manufacturer's procedure in a 96-wells plate. After 5 min incubation at RT samples were read at 570 nm with a spectrophotometer and the calcium levels were calculated in triplicate by using a standard reference as directed.

[2] = tested on: ovalbumin-challenged mouse bladder; assay: Blind histological analysis of bladder sections, allergic IC in mice; format: in vivo
Experimental: (§1) Mice (BALB/c, females 8 weeks old, weight 18-20 g, Charles River, Calco ITA) were sensitized by injecting 10 ug/mouse of chicken ovalbumin from Sigma (OVA, grade V) in the presence of 4 mg of alum (SERVA, Germany) by intraperitoneal injection, once a week for 4 weeks. This induces a sustained level of IgE detectable in serum.
(§2) One or two weeks after the last immunization boost, sensitized mice were anesthetized (1.5% Isoflurane) and then trans-urethrally catheterized (24 gauge, ¾ in.; Angiocath, Becton-Dickson). Slight digital pressure was applied the lower abdomen to drain the urine.
(§3) The urinary bladders were instilled with either 150 ul of either saline or OVA alone, (1 mg/150 ul) infused at a slow rate to avoid trauma and vesico-ureteral reflux and repeated twice within a 30-min interval with the syringe kept in place on the catheter for at least 30 min. Intravesical challenge was repeated 7-10 days after the first one with the same procedure.
(§4) An ethanol stock solution of Compound B (1 mg/ml) was dissolved in Miglyol vehicle at the appropriate concentration. Control animals received the vehicle containing the same amount of ethanol. Drug (or vehicle) treatment was carried out by daily gavage after weighing the animal. Drug solution was prepared calculating a final volume of 100 ul/10 grams body weight, and treatment was started on the day of the first intravesical ovalbumin challenge, maintained daily, but discontinued over the weekends, for 12 days total treatment. FIG. 7 illustrates the timeline of the experiment.
Bladders were explanted from the animals, longitudinally divided in two moieties, one half was either immediately fixed in formalin (10% buffered) for at least 3 hrs or snap frozen in liquid nitrogen upon inclusion in OCT freezing medium (Tissue-Tek Sakura). For histological analysis, fixed bladders were further processed and finally paraffin embedded. Five um sections were serially cut then stained with GIEMSA (BDH, 20% solution, 3 hrs RT) and then de-stained in 0.1% acetic acid for 10 sec. After a clarification step in Xylene, slides were permanently mounted with Eukitt medium and analyzed by a pathologist in a blinded fashion in order to evaluate for inflammatory cell infiltrate, mast cell numbers, and the presence of interstitial edema. A semi-quantitative histological score was used, assigning: 1 for mild infiltrate, no edema; 2 for intermediate infiltration, little edema; and 3 for severe infiltration and edema.
(§5) Experiments in Example 7 were performed according to the general procedures described previously in Example 6. Mice were challenged with saline (untreated) or ovalbumin (treatment with vehicle or one of Compounds C-I at a dosage indicated in Table 6 in ug/kg).

[3] = tested on: allergen-induced chronic bladder inflammation; assay: Efficacy ranking in the allergen-induced chronic bladder inflammation model of interstitial cystitis; format: in vivo, mouse; conditions: each compound at its tested dosage
Experimental: as §5
Summarizing all the results presented above in Example 7, we can conclude that these compounds can be ranked with respect to their efficacy in reducing several parameters measuring inflammation of the bladder in the allergen-induced chronic bladder inflammation model of interstitial cystitis.

[4] = tested on: MCPT2; assay: Taq-Man analysis of bladder mRNA, allergic IC in mice: MCPT2; format: in vivo, mouse; conditions: ovalbumin challenged; 30 and 75 ug/kg oral, dose dependent; pooled samples
Experimental: as §1
One or two weeks after the last immunization boost, sensitized mice were anesthetized (1.5% Isoflurane) and then trans-urethrally catheterized (24 gauge, ¾ in.; Angiocath, Becton-Dickson). Slight digital pressure was applied the lower abdomen to drain the urine. […]
Total RNA was extracted from one half of bladder by using RNeasy Mini kit (Qiagen), treated with DNase 1 (Qiagen) and reverse transcription performed with Reverse Transcription Reagent (Applied Biosystems) with Random Hexamers (according to the manufacturer's instructions). cDNA was synthesized from 1 ug of RNA. […] Reaction was run on an SDS 7000 (Applied Biosystems) instruments, with the following amplification program: 2′ at 50° C.; 10′ at 95° C.; 15″ at 95° C. and 1′ at 60° C. for 40 cycles; Cycle threshold (Ct) values were exported into Excel Worksheets for analysis and relative quantitations were performed using the ΔCt method. […]

[5] = tested on: FcεR1α; assay: Taq-Man analysis of bladder mRNA, allergic IC in mice: FcεR1α; format: in vivo, mouse; conditions: ovalbumin challenged
Experimental: as §1, §2, §3, §4
Total RNA was extracted from one half of bladder by using RNeasy Mini kit (Qiagen), treated with DNase 1 (Qiagen) and reverse transcription performed with Reverse Transcription Reagent (Applied Biosystems) with Random Hexamers (according to the manufacturer's instructions). cDNA was synthesized from 1 ug of RNA. Real-Time PCR was performed in 96-well optical reaction plates (Applied Biosystems). For each sample we amplified both the target gene and the housekeeping gene (HPRT) in different wells (singleplex) and in duplicate. The amplification Master Mix was prepared according to the following protocol (volumes refer to a single well with a final volume of 40 ul/well)): 2× TaqMan® R Universal PCR Master Mix (Applied Biosystems, 4304437): 20 ul; 20× Assay target gene: 2 ul; H2O: 8 ul; cDNA: 10 ul. Reaction was run on an SDS 7000 (Applied Biosystems) instruments, with the following amplification program: 2′ at 50° C.; 10′ at 95° C.; 15″ at 95° C. and 1′ at 60° C. for 40 cycles; Cycle threshold (Ct) values were exported into Excel Worksheets for analysis and relative quantitations were performed using the ΔCt method. All primers used carried the FAM reporter.
as §5

[6] = tested on: MMCP1 protein; assay: Serum level of mast-cell derived chymase MMCP1 protein, allergic IC in mice; format: in vivo, mouse
Experimental: as §1, §2, §3
Treatment Group: 10 mice were treated with oral vitamin D3 analogue (1-alpha-fluoro-25-hydroxy-16,23Ediene-26,27-bishomo-20-epi-cholecalciferol) Compound “B” for 14 days (daily dose of either 30 or 75 ug/kg).
as §4, §5

[7] = tested on: rat bladders (CYP-induced cystitis); assay: Histological analysis of rat bladders from the CYP cystitis experiment; format: in vivo
Experimental: Rat bladders from the experiments of Example 1 were fixed in formalin, embedded in paraffin and stained with hematoxylin and eosin by methods known in the art.
Histopathological examination was performed on at least 10 sections per bladder. Different inflammatory parameters were considered:
infiltration of inflammatory cells (mostly lymphocytes and monocytes)
and were scored as follows: 0=normal without any sign of inflammation, 1=mild, 2=moderate, 3=severe, 4=severe signs diffused across all of the section.
Table 3 refers to vehicle treated animals and Table 4 to “Compound A” treated animals. Each inflammatory parameter was scored from 0 to 4, where 0 is normal and 4 the most severe symptom.

[8] = 75 ug/kg oral vs vehicle, p<0.05
[9] = 75 ug/kg oral vs vehicle, p<0.01
[10] = individual rats, score 0 (normal) to 4 (most severe), Compound A 0.1 μg/kg oral 14 days
[11] = mean of 4 Compound A treated rats, score 0-4

In the case of `C=C1/C(=C\C=C2/CCC[C@]3(C)C([C@@H](C)C/C=C/C(O)(CC)CC)=CC[C@@H]23)C[C@@H](O)C[C@@H]1F` [Compound B, 1-alpha-fluoro-25-hydroxy-16,23E-diene-26,27-bishomo-20-epi-cholecalciferol], the serum calcium level [1, 8] is reported as “small, but statistically significant increase”, the “calcemic levels relative to the toxicity threshold” value ([1]; 75 ug/kg oral, toxicity threshold 10.7 mg/dl in mice) is reported as “did not cause calcemic levels to rise above the toxicity threshold” and the serum calcium levels ([1]; lower dosage, not shown) is reported as “No significant changes”. The “edema in bladder sections” value ([2]; 75 ug/kg oral vs vehicle, p<0.001) was “completely resolved”, the “eosinophils in bladder sections” value [2, 9] was “significant reduction” and the “lymphocytes in bladder sections” value [2, 9] was “significant reduction”. For the same molecule, the “mast cells in bladder sections” value [2, 8] was “significant reduction”, the “signs of edema in representative bladder slides” value ([2]; 75 ug/kg oral, FIG. 16, x50 magnification) was “no signs of edema” and the “Efficacy ranking in reducing parameters of bladder inflammation” value [3] was “Compound E>Compound F>Compound B>Compound H>Compound I>Compound A>Compound A=Compound G”. For the same molecule, the “expression of inflammatory marker MCPT2” value [4] was “significantly reduces”, the “expression of inflammatory marker FcεR1α” value ([5]; 75 ug/kg oral, individual animals) was “down-modulates” and the “expression of inflammatory marker FcεR1α” value ([5]; 30 and 75 ug/kg oral, dose dependent, pooled samples) was “significantly reduces”. For the same molecule, the “serum levels of chymase MMCP1 protein” value [6, 8] was “significantly lower”.

In the case of `CC(=O)OC1C/C(=C/C=C2\CCC[C@]3(C)C(C(C)C/C=C\C(O)(C(F)(F)F)C(F)(F)F)=CCC23)C[C@@H](OC(C)=O)C1` (stereo partly drawn) [Compound A, 1,3-Di-O-acetyl-1,25-dihydroxy-16,23Z-diene-26,27-hexafluoro-19-nor-cholecalciferol], the “EPITHELIAL EROSION histological score” value [7, 10] is reported as 0, the FIBROSIS histological score [7, 10] is reported as 0 and the HEMOSTASIS histological score [7, 10] is reported as 0 and 1 and 0.5 (2×). The INFILTRATION histological score [7, 10] was 0.5 (2×) and 1 and 2, the EDEMA histological score ([7]; individual rats, score 0 normal, 1 mild, 2 moderate, 3 severe, 4 severe diffused, Compound A 0.1 μg/kg oral 14 days) was 0.5 and 0 (2×) and 2 and the “EDEMA histological score, MEAN” value [7, 11] was 0.63. The “EPITHELIAL EROSION histological score, MEAN” value [7, 11] was 0, the “FIBROSIS histological score, MEAN” value [7, 11] was 0 and the “HEMOSTASIS histological score, MEAN” value [7, 11] was 0.5. The “INFILTRATION histological score, MEAN” value [7, 11] was 1, the “serum calcium levels relative to the vehicle treated control group” value ([1]; oral ug/kg: C 3, A 0.1, E 0.3, F 30, G 100, H 1, I 3, elevations p<0.001) was “no significant increase” and the “numbers of eosinophils in the bladder wall” value ([2]; 0.1 ug/kg oral vs vehicle, p<0.05) was “significantly reduced numbers”. The “Efficacy ranking in reducing parameters of bladder inflammation” value [3] was “Compound E>Compound F>Compound B>Compound H>Compound I>Compound A>Compound A=Compound G” and the “serum level of the MMCP1 protein” value ([6]; ovalbumin challenged vs vehicle, oral ug/kg: A 0.1, E 0.3, F 30, F p<0.05, A, E p<0.001) was “statistically significant reduction”.
